Laboratory results reported in ChEMBL document CHEMBL4130433, “Acridone-pyrimidine hybrids- design, synthesis, cytotoxicity studies in resistant and sensitive cancer cells and molecular docking studies” (Eur J Med Chem, 2017).

What was measured:
[1] = system: Rattus norvegicus; assay: Toxicity in overnight fasted albino Wistar rat assessed as body weight at 2000 mg/kg, po administered as single dose followed by fasting for 3 hrs measured on day 7 post dose (reference value: 175 +/- 10 g); type: organism-based; details: in vivo
[2] = system: Rattus norvegicus; assay: Toxicity in overnight fasted albino Wistar rat assessed as body weight at 2000 mg/kg, po administered as single dose followed by fasting for 3 hrs measured on day 14 post dose (reference value: 191 +/- 18 g); type: organism-based; details: in vivo
[3] = system: SW1573; assay: Antiproliferative activity against resistant human SW1573 2R 160 cells harboring P-gp after 72 hrs by MTT assay; type: functional, cell-based; details: SW1573, 72 h
[4] = system: Rattus norvegicus; assay: Toxicity in overnight fasted albino Wistar rat assessed as body weight at 2000 mg/kg, po administered as single dose followed by fasting for 3 hrs measured on day 12 post dose (reference value: 186 +/- 13 g); type: organism-based; details: in vivo
[5] = system: Rattus norvegicus; assay: Toxicity in overnight fasted albino Wistar rat assessed as body weight at 5000 mg/kg, po administered as single dose followed by fasting for 3 hrs measured on day 8 post dose (reference value: 177 +/- 8 g); type: organism-based; details: in vivo
[6] = system: Rattus norvegicus; assay: Toxicity in overnight fasted albino Wistar rat assessed as body weight at 5000 mg/kg, po administered as single dose followed by fasting for 3 hrs measured on day 1 post dose (reference value: 162 +/- 8 g); type: organism-based; details: in vivo
[7] = system: Rattus norvegicus; assay: Toxicity in overnight fasted albino Wistar rat assessed as body weight at 2000 mg/kg, po administered as single dose followed by fasting for 3 hrs measured on day 9 post dose (reference value: 180 +/- 12 g); type: organism-based; details: in vivo
[8] = system: Rattus norvegicus; assay: Toxicity in overnight fasted albino Wistar rat assessed as body weight at 2000 mg/kg, po administered as single dose followed by fasting for 3 hrs measured on day 4 post dose (reference value: 169 +/- 5 g); type: organism-based; details: in vivo
[9] = system: Rattus norvegicus; assay: Toxicity in overnight fasted albino Wistar rat assessed as body weight at 300 mg/kg, po administered as single dose followed by fasting for 3 hrs measured on day 6 post dose (reference value: 173 +/- 12 g); type: organism-based; details: in vivo
[10] = system: Rattus norvegicus; assay: Toxicity in overnight fasted albino Wistar rat assessed as body weight at 2000 mg/kg, po administered as single dose followed by fasting for 3 hrs measured on day 11 post dose (reference value: 185 +/- 8 g); type: organism-based; details: in vivo
[11] = Antiproliferative activity against human MCF7/MX cells after 72 hrs by MTT assay; type: functional, cell-based
[12] = Cytotoxicity against African green monkey Vero cells after 72 hrs by MTT assay; type: cell-based; details: chlorocebus sabaeus
[13] = system: MCF7; assay: Antiproliferative activity against human MCF7 cells after 72 hrs by MTT assay; type: functional, cell-based; details: MCF7, 72 h
[14] = system: Rattus norvegicus; assay: Toxicity in overnight fasted albino Wistar rat assessed as body weight at 2000 mg/kg, po administered as single dose followed by fasting for 3 hrs measured on day 10 post dose (reference value: 182 +/- 15 g); type: organism-based; details: in vivo
[15] = system: 2008; assay: Antiproliferative activity against human 2008 cells after 72 hrs by MTT assay; type: functional, cell-based; details: Homo sapiens, 2008, 72 h
[16] = system: Rattus norvegicus; assay: Toxicity in overnight fasted albino Wistar rat assessed as body weight at 5000 mg/kg, po administered as single dose followed by fasting for 3 hrs measured on day 3 post dose (reference value: 166 +/- 10 g); type: organism-based; details: in vivo
[17] = system: Rattus norvegicus; assay: Toxicity in overnight fasted albino Wistar rat assessed as body weight at 5000 mg/kg, po administered as single dose followed by fasting for 3 hrs measured on day 6 post dose (reference value: 173 +/- 12 g); type: organism-based; details: in vivo
[18] = system: Rattus norvegicus; assay: Toxicity in overnight fasted albino Wistar rat assessed as body weight at 300 mg/kg, po administered as single dose followed by fasting for 3 hrs measured on day 12 post dose (reference value: 186 +/- 13 g); type: organism-based; details: in vivo
[19] = system: HeLa; assay: Antiproliferative activity against human HeLa cells after 72 hrs by MTT assay; type: functional, cell-based
[20] = system: Rattus norvegicus; assay: Toxicity in overnight fasted albino Wistar rat assessed as body weight at 2000 mg/kg, po administered as single dose followed by fasting for 3 hrs measured on day 3 post dose (reference value: 166 +/- 10 g); type: organism-based; details: in vivo
[21] = system: Rattus norvegicus; assay: Toxicity in overnight fasted albino Wistar rat assessed as body weight at 2000 mg/kg, po administered as single dose followed by fasting for 3 hrs measured on day 6 post dose (reference value: 173 +/- 12 g); type: organism-based; details: in vivo
[22] = system: Rattus norvegicus; assay: Toxicity in overnight fasted albino Wistar rat assessed as body weight at 5000 mg/kg, po administered as single dose followed by fasting for 3 hrs measured on day 5 post dose (reference value: 172 +/- 14 g); type: organism-based; details: in vivo
[23] = system: Rattus norvegicus; assay: Toxicity in overnight fasted albino Wistar rat assessed as body weight at 5000 mg/kg, po administered as single dose followed by fasting for 3 hrs measured on day 13 post dose (reference value: 188 +/- 16 g); type: organism-based; details: in vivo
[24] = system: Rattus norvegicus; assay: Toxicity in overnight fasted albino Wistar rat assessed as body weight at 300 mg/kg, po administered as single dose followed by fasting for 3 hrs measured on day 8 post dose (reference value: 177 +/- 8 g); type: organism-based; details: in vivo
[25] = system: SW1573; assay: Antiproliferative activity against human SW1573 cells after 72 hrs by MTT assay; type: functional, cell-based; details: SW1573, 72 h
[26] = system: Rattus norvegicus; assay: Toxicity in overnight fasted albino Wistar rat assessed as body weight at 2000 mg/kg, po administered as single dose followed by fasting for 3 hrs measured on day 13 post dose (reference value: 188 +/- 16 g); type: organism-based; details: in vivo
[27] = system: Rattus norvegicus; assay: Toxicity in overnight fasted albino Wistar rat assessed as body weight at 5000 mg/kg, po administered as single dose followed by fasting for 3 hrs measured on day 4 post dose (reference value: 169 +/- 5 g); type: organism-based; details: in vivo
[28] = system: Rattus norvegicus; assay: Toxicity in overnight fasted albino Wistar rat assessed as clinical signs at 300 to 5000 mg/kg, po administered as single dose followed by fasting for 3 hrs measured for every 1 hr up to 12 hrs on first day of dosing and thereafter twice in a day for 14 days; type: organism-based; details: in vivo
[29] = system: 2008; assay: Antiproliferative activity against resistant human 2008 cells clone 6 harboring MRP1 after 72 hrs by MTT assay; type: functional, cell-based; details: Homo sapiens, 2008, 72 h
[30] = system: Rattus norvegicus; assay: Toxicity in overnight fasted albino Wistar rat assessed as body weight at 5000 mg/kg, po administered as single dose followed by fasting for 3 hrs measured on day 10 post dose (reference value: 182 +/- 15 g); type: organism-based; details: in vivo
[31] = system: SW1573; assay: Antiproliferative activity against resistant human SW1573 2R 120 cells harboring MRP1 after 72 hrs by MTT assay; type: functional, cell-based; details: SW1573, 72 h
[32] = system: Rattus norvegicus; assay: Toxicity in overnight fasted albino Wistar rat assessed as body weight at 300 mg/kg, po administered as single dose followed by fasting for 3 hrs measured on day 10 post dose (reference value: 182 +/- 15 g); type: organism-based; details: in vivo
[33] = system: Rattus norvegicus; assay: Toxicity in overnight fasted albino Wistar rat assessed as body weight at 5000 mg/kg, po administered as single dose followed by fasting for 3 hrs measured on day 14 post dose (reference value: 191 +/- 18 g); type: organism-based; details: in vivo
[34] = system: Rattus norvegicus; assay: Toxicity in overnight fasted albino Wistar rat assessed as body weight at 300 mg/kg, po administered as single dose followed by fasting for 3 hrs measured on day 9 post dose (reference value: 180 +/- 12 g); type: organism-based; details: in vivo

COC(=O)c1c(C)nc(NNC(=O)c2cccc3c(=O)c4ccccc4[nH]c23)nc1-c1ccc(OC)c(OC)c1
Activity [1]: 195 g
Activity [2]: 213 g
IC50 [3]: 12 µM
Activity [4]: 206 g
Activity [5]: 208 g
Activity [6]: 188 g
Activity [7]: 199 g
Activity [8]: 187 g
Activity [9]: 190 g
Activity [10]: 205 g
IC50 [11]: 78 µM
CC50 at 72 h [12]: 85.7 µM
IC50 [13]: 65 µM
Activity [14]: 202 g
IC50 [15]: 26 µM
Activity [16]: 192 g
Activity [17]: 202 g
Activity [18]: 199 g
IC50 [19]: 63.5 µM
Activity [20]: 186 g
Activity [21]: 194 g
Activity [22]: 198 g
Activity [23]: 224 g
Activity [24]: 192 g
IC50 [25]: 4 µM
Activity [26]: 209 g
Activity [27]: 196 g
Activity [28]: Non-Toxic
IC50 [29]: 65 µM
Activity [30]: 215 g
IC50 [31]: > 100 µM
Activity [32]: 193 g
Activity [33]: 228 g
Activity [34]: 193 g
